Measurements taken from ChEMBL document CHEMBL1201862, “PubChem BioAssay data set” (2004).
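Tested at 5 concentrations; 48 h exposure; 96-well plates; endpoints linearly interpolated, else capped at highest concentration. GI50 = concentration required for 50% inhibition of growth.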 Calls of active or inactive are those of the source. Rule as the data show it: active = GI50 up to about 1.1 µM and inactive = higher.

Legend:
Test in all cases: inhibition of tumour cell growth, NCI panel, 48 h
SN12C = test system: SN12C
XF498 = test system: XF498
RXF 631 = test system: RXF 631
NCI-H460 = test system: NCI-H460
CAKI-1 = test system: CAKI-1
HOP-62 = test system: HOP-62
SNB-19 = test system: SNB-19
KM12 = test system: KM12
A498 = test system: A498
HOP-18 = test system: HOP-18
TK-10 = test system: TK-10
OVCAR-8 = test system: OVCAR-8
M14 = test system: M14
SF-268 = test system: SF-268
MOLT-4 = test system: MOLT-4
HL-60 = test system: HL-60
HT-29 = test system: HT-29
SK-MEL-5 = test system: SK-MEL-5
NCI-H23 = test system: NCI-H23
RXF 393 = test system: RXF 393
HCT-15 = test system: HCT-15
DMS-273 = test system: DMS-273
OVCAR-5 = test system: OVCAR-5
DLD-1 = test system: DLD-1
786-0 = test system: 786-0
ACHN = test system: ACHN
SNB-75 = test system: SNB-75
SK-OV-3 = test system: SK-OV-3
Malme-3M = test system: Malme-3M
RPMI-8226 = test system: RPMI-8226
SNB-78 = test system: SNB-78
LXFL 529 = test system: LXFL 529
OVCAR-4 = test system: OVCAR-4
SK-MEL-28 = test system: SK-MEL-28
DMS-114 = test system: DMS-114
SF-539 = test system: SF-539
CCRF-CEM = test system: CCRF-CEM
IGROV-1 = test system: IGROV-1
A549 = test system: A549
M19-MEL = test system: M19-MEL
K562 = test system: K562
SK-MEL-2 = test system: SK-MEL-2
COLO 205 = test system: COLO 205
EKVX = test system: EKVX
U-251 = test system: U-251
OVCAR-3 = test system: OVCAR-3
KM-20L2 = test system: KM-20L2
HCC 2998 = test system: HCC 2998
SF-295 = test system: SF-295
SW-620 = test system: SW-620
HCT-116 = test system: HCT-116
HOP-92 = test system: HOP-92
UACC-257 = test system: UACC-257
UACC-62 = test system: UACC-62
UO-31 = test system: UO-31
LOX IMVI = test system: LOX IMVI

O=c1cc[nH]c2ccc3nn[nH]c3c12
GI50 (SN12C): > 100 µM (inactive) | GI50 (XF498): > 100 µM (inactive) | GI50 (RXF 631): > 100 µM (inactive) | GI50 (NCI-H460): > 100 µM (inactive) | GI50 (CAKI-1): > 100 µM (inactive) | GI50 (HOP-62): > 100 µM (inactive) | GI50 (SNB-19): > 100 µM (inactive) | GI50 (KM12): > 100 µM (inactive) | GI50 (A498): > 100 µM (inactive) | GI50 (HOP-18): > 100 µM (inactive) | GI50 (TK-10): > 100 µM (inactive) | GI50 (OVCAR-8): > 100 µM (inactive) | GI50 (M14): > 100 µM (inactive) | GI50 (SF-268): > 100 µM (inactive) | GI50 (MOLT-4): > 100 µM (inactive) | GI50 (HL-60): > 100 µM (inactive) | GI50 (HT-29): > 100 µM (inactive) | GI50 (SK-MEL-5): > 100 µM (inactive) | GI50 (NCI-H23): > 100 µM (inactive) | GI50 (RXF 393): > 100 µM (inactive) | GI50 (HCT-15): > 100 µM | GI50 (DMS-273): > 100 µM (inactive) | GI50 (OVCAR-5): > 100 µM (inactive) | GI50 (DLD-1): > 100 µM (inactive) | GI50 (786-0): > 100 µM (inactive) | GI50 (ACHN): > 100 µM (inactive) | GI50 (SNB-75): > 100 µM (inactive) | GI50 (SK-OV-3): > 100 µM (inactive) | GI50 (Malme-3M): > 100 µM (inactive) | GI50 (RPMI-8226): > 100 µM (inactive) | GI50 (SNB-78): > 100 µM (inactive) | GI50 (LXFL 529): > 100 µM (inactive) | GI50 (OVCAR-4): > 100 µM (inactive) | GI50 (SK-MEL-28): > 100 µM (inactive) | GI50 (DMS-114): > 100 µM (inactive) | GI50 (SF-539): > 100 µM (inactive) | GI50 (CCRF-CEM): > 100 µM (inactive) | GI50 (IGROV-1): > 100 µM (inactive) | GI50 (A549): > 100 µM (inactive) | GI50 (M19-MEL): > 100 µM (inactive) | GI50 (K562): > 100 µM (inactive) | GI50 (SK-MEL-2): > 100 µM (inactive) | GI50 (COLO 205): > 100 µM (inactive) | GI50 (EKVX): > 100 µM (inactive) | GI50 (U-251): > 100 µM (inactive) | GI50 (OVCAR-3): > 100 µM (inactive) | GI50 (KM-20L2): > 100 µM (inactive) | GI50 (HCC 2998): > 100 µM (inactive) | GI50 (SF-295): > 100 µM (inactive) | GI50 (SW-620): > 100 µM (inactive) | GI50 (HCT-116): > 100 µM (inactive) | GI50 (HOP-92): > 100 µM (inactive) | GI50 (UACC-257): > 100 µM (inactive) | GI50 (UACC-62): > 100 µM (inactive)

CCN(C1=CC(=O)NC2CCCCN12)c1ccccc1 (stereo not drawn)
GI50 (SN12C): > 100 µM (inactive) | GI50 (XF498): > 100 µM (inactive) | GI50 (RXF 631): > 100 µM (inactive) | GI50 (NCI-H460): > 100 µM (inactive) | GI50 (CAKI-1): > 100 µM (inactive) | GI50 (HOP-62): > 100 µM (inactive) | GI50 (SNB-19): > 100 µM (inactive) | GI50 (KM12): > 100 µM (inactive) | GI50 (UO-31): > 10 µM (inactive) | GI50 (A498): > 100 µM (inactive) | GI50 (HOP-18): > 100 µM (inactive) | GI50 (TK-10): > 100 µM (inactive) | GI50 (OVCAR-8): > 100 µM (inactive) | GI50 (M14): > 100 µM (inactive) | GI50 (SF-268): > 100 µM (inactive) | GI50 (MOLT-4): > 100 µM (inactive) | GI50 (HT-29): > 100 µM (inactive) | GI50 (SK-MEL-5): > 100 µM (inactive) | GI50 (NCI-H23): > 100 µM (inactive) | GI50 (RXF 393): > 100 µM (inactive) | GI50 (HCT-15): > 100 µM | GI50 (DMS-273): > 100 µM (inactive) | GI50 (OVCAR-5): > 100 µM (inactive) | GI50 (DLD-1): > 100 µM (inactive) | GI50 (786-0): > 100 µM (inactive) | GI50 (ACHN): > 100 µM (inactive) | GI50 (SNB-75): > 100 µM (inactive) | GI50 (SK-OV-3): > 100 µM (inactive) | GI50 (Malme-3M): > 100 µM (inactive) | GI50 (RPMI-8226): > 100 µM (inactive) | GI50 (SNB-78): > 100 µM (inactive) | GI50 (LXFL 529): > 100 µM (inactive) | GI50 (OVCAR-4): > 100 µM (inactive) | GI50 (SK-MEL-28): > 100 µM (inactive) | GI50 (DMS-114): > 100 µM (inactive) | GI50 (SF-539): > 100 µM (inactive) | GI50 (CCRF-CEM): > 100 µM (inactive) | GI50 (IGROV-1): > 100 µM (inactive) | GI50 (A549): > 100 µM (inactive) | GI50 (M19-MEL): > 100 µM (inactive) | GI50 (K562): > 100 µM (inactive) | GI50 (SK-MEL-2): > 100 µM (inactive) | GI50 (COLO 205): > 100 µM (inactive) | GI50 (EKVX): > 100 µM (inactive) | GI50 (U-251): > 100 µM (inactive) | GI50 (OVCAR-3): > 100 µM (inactive) | GI50 (KM-20L2): > 100 µM (inactive) | GI50 (HCC 2998): > 100 µM (inactive) | GI50 (SF-295): > 100 µM (inactive) | GI50 (SW-620): > 100 µM (inactive) | GI50 (HCT-116): > 100 µM (inactive) | GI50 (UACC-257): > 100 µM (inactive) | GI50 (UACC-62): > 100 µM (inactive) | GI50 (LOX IMVI): > 100 µM (inactive)
